Values after ≈ are worked out from the molar mass of the structure shown. Values joined by “and” are separate entries in the source; they are usually repeats but may differ in a detail not shown here. Identical values can stand only once. Like-named read-outs stand apart in the source and are kept apart here.
Legend:
[1] = system: HIV-1 wild type; assay: MT-4 cell-based antiviral assay (viral cytopathicity, tetrazolium); conditions: Human immunodeficiency virus 1, MT4, wild type virus
Description: (§1) Compound E-TMC278 was tested in a cell-based assay, using natural host cells of HIV. MT-4 cells (a cell line of human T cells) were infected with HIV-1 (wild type or mutants) and exposed to different concentrations of antiviral compound in the presence of 10% fetal calf serum. Cytotoxicity was determined in parallel with the antiviral activity so that the selectivity of the antiviral effect could be assessed. Active compounds have to penetrate the cell membrane in order to interfere with replication steps inside the cell.
(§2) After four days of incubation at 37° C., the viability of the HIV and mock-infected cells was assessed by an automated tetrazolium-based calorimetric assay. This method enabled the calculation of both the 50% inhibitory concentration for inhibition of viral cytopathicity (IC50), the IC90, and the 50% cytotoxic concentration (CC50). The ratio CC50/IC50, also called the selectivity index, is an indication of the specificity of the antiviral effect. Tested HIV strains included: Wild type (wt) HIV-1; a panel of single and double mutants, obtained by site-directed mutagenesis (SDM), and a panel of clinical isolates, selected for resistance against NNRTIs.

[2] = Phase I single oral dose trials: safety, tolerability, pharmacokinetics; assay type: in vivo, human; conditions: for Cmax / half-life / Tmax: human, plasma; for half-life / Tmax: male
Description: Oral doses of 12.5, 25, and 50 mg were formulated in PEG 400 and taken with a standard meal.
There was a time interval of about 14 days between each dosing session

[3] = system: HIV-1 mutant 188L; assay: MT-4 cell-based antiviral assay, SDM mutant
Description: as §1, §2
(§3) A limited panel of HIV-1 mutants was constructed using site-directed mutagenesis (SDM) and homologous recombination techniques. […] Nevirapine (NVP) and efavirenz (EFV) were included as controls.

[4] = system: HIV-1 mutant 236L; assay: MT-4 cell-based antiviral assay, SDM mutant; conditions: Human immunodeficiency virus 1, MT4
Description: as §1, §2, §3

[5] = system: HIV-1 mutant 181C; assay: MT-4 cell-based antiviral assay, SDM mutant
Description: as §1, §2, §3

[6] = system: HIV-1 mutant 227C; assay: MT-4 cell-based antiviral assay, SDM mutant
Description: as §1, §2, §3

[7] = system: HIV-1 mutant 108I; assay: MT-4 cell-based antiviral assay, SDM mutant; conditions: Human immunodeficiency virus 1, MT4
Description: as §1, §2, §3

[8] = system: HIV-1 mutant 101E; assay: MT-4 cell-based antiviral assay, SDM mutant; conditions: Human immunodeficiency virus 1, MT4
Description: as §1, §2, §3

[9] = system: HIV-1 mutant 234I; assay: MT-4 cell-based antiviral assay, SDM mutant; conditions: Human immunodeficiency virus 1, MT4
Description: as §1, §2, §3

[10] = system: HIV-1 double mutant 227L + 106A; assay: MT-4 cell-based antiviral assay, SDM mutant
Description: as §1, §2, §3

[11] = system: HIV-1 double mutant 100I + 103N; assay: MT-4 cell-based antiviral assay, SDM mutant
Description: as §1, §2, §3

[12] = system: HIV-1 double mutant 101E + 103N; assay: MT-4 cell-based antiviral assay, SDM mutant; conditions: Human immunodeficiency virus 1, MT4, 96 h
Description: as §1, §2, §3

[13] = system: HIV-1 mutant 188C; assay: MT-4 cell-based antiviral assay, SDM mutant; conditions: Human immunodeficiency virus 1, MT4
Description: as §1, §2, §3

[14] = system: HIV-1 double mutant 103N + 181C; assay: MT-4 cell-based antiviral assay, SDM mutant
Description: as §1, §2, §3

[15] = system: HIV-1 double mutant 103N + 181I; assay: MT-4 cell-based antiviral assay, SDM mutant; conditions: Human immunodeficiency virus 1, MT4, 96 h
Description: as §1, §2, §3

[16] = system: HIV-1 mutant 103N; assay: MT-4 cell-based antiviral assay, SDM mutant
Description: as §1, §2, §3

[17] = system: HIV-1 mutant 179D; assay: MT-4 cell-based antiviral assay, SDM mutant; conditions: Human immunodeficiency virus 1, MT4
Description: as §1, §2, §3

[18] = system: HIV-1 mutant 106A; assay: MT-4 cell-based antiviral assay, SDM mutant; conditions: Human immunodeficiency virus 1, MT4
Description: as §1, §2, §3

[19] = system: HIV-1 mutant 190A; assay: MT-4 cell-based antiviral assay, SDM mutant; conditions: Human immunodeficiency virus 1, MT4
Description: as §1, §2, §3

[20] = system: HIV-1 mutant 227L; assay: MT-4 cell-based antiviral assay, SDM mutant; conditions: Human immunodeficiency virus 1, MT4
Description: as §1, §2, §3

[21] = system: HIV-1 mutant 225H; assay: MT-4 cell-based antiviral assay, SDM mutant; conditions: Human immunodeficiency virus 1, MT4
Description: as §1, §2, §3

[22] = system: HIV-1 mutant 188H; assay: MT-4 cell-based antiviral assay, SDM mutant; conditions: Human immunodeficiency virus 1, MT4
Description: as §1, §2, §3

[23] = system: HIV-1 mutant 190S; assay: MT-4 cell-based antiviral assay, SDM mutant; conditions: Human immunodeficiency virus 1, MT4
Description: as §1, §2, §3

[24] = system: HIV-1 double resistant mutant K103N+Y181C; assay: Development of resistance in vitro, starting from double mutant; assay type: cell-based
Excerpt: (§4) Emerging virus was collected for pheno- and genotyping. Cultures without evidence of virus replication were further sub-cultivated in the presence of the same concentration of inhibitor for a total duration of 30 days (10 passages).

[25] = system: HIV-1 single mutant 103N; assay: Development of resistance in vitro, starting from single mutant; assay type: cell-based; conditions: starting from 103N
Excerpt: as §4

[26] = system: HIV-1 single mutant Y181C; assay: as above; assay type: cell-based
Excerpt: as §4

[27] = Cardiovascular and pulmonary safety in vivo; conditions: plasma levels covering and exceeding the targeted plasma levels in man
[28] = single oral doses, healthy volunteers
[29] = Human immunodeficiency virus 1, MT4
[30] = Human immunodeficiency virus 1, MT4, read-out: IC50 value

Cc1cc(/C=C/C#N)cc(C)c1Nc1ccnc(Nc2ccc(C#N)cc2)n1 [E-TMC278, (E)-4-[[4-[[4-(2-cyanoethenyl)-2,6-dimethylphenyl]-amino]-2-pyrimidinyl]-amino]-benzonitrile]
IC90 [1]: 1.3 nM and 0.00048 µg/mL | IC50 ([1]; read-out: IC50): 0.15 ng/mL (≈ 0.409 nM) | correlation coefficient for AUC0-48 hr (dose proportionality) ([2]; 12.5-200 mg): 0.9952 | correlation coefficient for the 5 Cmax datapoints (dose proportionality) ([2]; 12.5-200 mg): 0.9897 | Cmax ([2]; single oral dose 25 mg in PEG 400 with standard meal, healthy male volunteers): 149 ± 32 ng/mL | Cmax ([2]; single oral dose 50 mg in PEG 400 with standard meal, healthy male volunteers): 267 ± 27 ng/mL | Cmax ([2]; single oral dose 100 mg, healthy male subjects): 482 ± 121 ng/mL | Cmax ([2]; single oral dose 200 mg, healthy male subjects): 807 ± 207 ng/mL | half-life ([2]; across single oral doses, read-out: Half-life of plasma concentrations): 37 to 39 h | Tmax ([2]; single oral dose 12.5 mg): 4 h | half-life ([2]; single oral dose 12.5 mg, read-out: T1/2 (converted)): 37.1 h | Tmax ([2]; single oral dose 25 mg): 4 ± 1.3 h | half-life ([2]; single oral dose 25 mg, read-out: T1/2 (converted)): 38.7 h | Tmax ([2]; single oral dose 50 mg): 4 ± 1.3 h | half-life ([2]; single oral dose 50 mg, read-out: T1/2 (converted)): 45 ± 9 h | Tmax ([2]; single oral dose 100 mg): 4.3 ± 0.8 h | half-life ([2]; single oral dose 100 mg, read-out: T1/2 (converted)): 55 ± 18 h | Tmax ([2]; single oral dose 200 mg): 4.3 ± 0.8 h | Adverse effects [2, 28]: No relevant adverse effects | Tolerability [2, 28]: well tolerated | IC50 [3, 29]: 2 nM | IC50 [3, 30]: 2 nM | IC50 [4]: 0.3 nM | IC50 [5, 29]: 1.3 nM | IC50 [5, 30]: 1.3 nM | IC50 [6, 29]: 2 nM | IC50 [6, 30]: 2 nM | IC50 [7]: 0.3 nM | IC50 [8]: 1.6 nM | IC50 [9]: 0.3 nM | IC50 ([10]; Human immunodeficiency virus 1, MT4, 96 h): 1 nM | IC50 [10, 30]: 1 nM | IC90 [11, 29]: ~16 nM | IC50 ([11]; Human immunodeficiency virus 1, MT4, 96 h, 100I + 103N, MT-4 cells): ~8 nM | IC50 ([11]; Human immunodeficiency virus 1, MT4, read-out: IC50 value, Table 1, HIV RT mutation: 100I + 103N): 7.9 nM | IC50 [12]: 0.5 nM | IC50 [13]: 0.1 nM | IC50 [14, 29]: 0.8 nM | IC50 [14, 30]: 1 nM | IC50 [15]: 1 nM | IC50 [16, 29]: 0.3 nM | IC50 [16, 30]: 0.3 nM | IC50 [17]: 0.6 nM | IC50 [18]: 0.2 nM | IC50 [19]: 0.3 nM | IC50 [20]: 0.3 nM | IC50 [21]: 0.3 nM | IC50 [22]: 0.2 nM | IC50 [23]: 0.1 nM | emergence of resistance [24]: resistance did emerge at all tested concentrations | virus breakthrough ([25]; at 10 nM): did occur | virus breakthrough ([25]; at 40 and 200 nM): did not occur | virus breakthrough ([26]; at 10 nM): did occur | virus breakthrough ([26]; at 40 and 200 nM): did not occur | effect on cardiovascular and pulmonary parameters in vivo [27]: little or no effect

Reference: US8841310B2, “Combinations of a pyrimidine containing NNRTI with RT inhibitors” (Janssen R & D Ireland, priority 2003, dated 2014)
